Reference: patent US20090253706A1, “Methods and Compositions for the Treatment of Rheumatoid Arthritis and Other Inflammatory Diseases” (priority 2008, published 2009)

Columns and labels:
Format in all cases: in vivo
[1] = tested on: anti-glucose-6-phosphate isomerase (GPI) Ig; test: Serum anti-GPI Ig titer in treated K/BxN mice; conditions: FIG. 2A; IgM and IgG isotypes, vs carrier alone
From the text: (§1) FIG. 2A is a graph of the titer of serum anti-glucose-6-phosphate isomerase (GPI) IgM and IgG isotypes from K/BxN mice treated with 1-methyl-tryptophan or carrier alone. FIG. 2B is a graph of the number of anti-GPI secreting cells per 10^5 cells present in the spleen, draining lymph nodes (dLN), and non-draining lymph nodes (non-dLN) of K/BxN mice treated with 1-methyl-tryptophan or carrier alone.
(§2) K/BxN mice produce arthritogenic Abs directed against GPI, which develop at high titers because of the preferential help that B cells expressing GPI-specific immunoglobulins receive from GPI-reactive T cells displaying the transgene-encoded TCR.

[2] = tested on: anti-GPI antibody secreting cells; test: Anti-GPI antibody secreting cells in spleen and lymph nodes of treated K/BxN mice; conditions: FIG. 2B; spleen, draining lymph nodes (dLN), non-draining lymph nodes (non-dLN), vs carrier alone
From the text: as §1, §2

K/BxN mice = test: Arthritis prevention in K/BxN mice, treatment from weaning, rear ankle thickness
From the text: K/BxN TCR transgenic mice express a TCR reactive to a self-peptide derived from the glucose-6-phosphate isomerase (GPI), presented by the MHC class II molecule A^g7 (Korganow et al. (1999) Immunity, 10:451-461; Kouskoff et al. (1996) Cell, 87:811-822; Matsumoto et al. (1999) Science, 286:1732-1735). K/BxN mice spontaneously develop a very aggressive form of arthritis at 3 to 4 weeks of age. […] The arthritis experienced by K/BxN mice is joint specific and allows for the scoring of the arthritis by caliper measurement of ankle thickness (Korganow et al. (1999) Immunity, 10:451-461; Ji et al. (2001) J. Exp. Med., 194:321-330).
Starting at weaning (21 days of age) K/BxN mice were administered 400 mg/kg of 1-methyl-D-tryptophan, 400 mg/kg of 1-methyl-L-tryptophan, or carrier alone b.i.d. (twice daily) by p.o. (oral) gavage.
Mice were given 400 mg/kg/dose (100 μl total volume) of D/L-1MT or D-1MT diluted in METHOCEL™/Tween® (0.5% Tween 80, 0.5% methylcellulose (v/v in water) twice daily by oral gavage (p.o.) using a curved feeding needle as described (Muller et al. (2005) Nat. Med., 11:312-319). 1MT was administered on a b.i.d. schedule, once in the morning and once in the evening. Methotrexate (MTX) was diluted in 0.5% carboxymethyl cellulose and administered by oral gavage at a range of doses 1-25 mg/kg/dose (0.1 cc/20 g mouse) using a curved feeding needle. The mice were given one dose per week as described (Asanuma et al. (2002) Eur. J. Pharmacol., 435:253-258). Control mice were given an equal volume of carrier alone (METHOCEL™/Tween®).
For the arthritis prevention experiments, MTX and/or 1MT treatment was started on the day of weaning (age 21 days). For the treatment of established arthritis, MTX and/or 1MT was administered after the mice had measurable arthritis.
The two rear ankles of MTX, 1MT, MTX+1 MT, or carrier-treated K/BxN mice were measured starting at weaning (3 wk of age) as described (Mandik-Nayak et al. (2002) Proc. Natl. Acad. Sci., 99:14368-14373). Measurement of ankle thickness was made above the footpad axially across the ankle joint using a Fowler Metric Pocket Thickness Gauge.

[3] = Example 1, FIG. 1, 400 mg/kg b.i.d. p.o. from 21 days of age, vs carrier alone
[4] = Example 2, FIG. 3, 400 mg/kg p.o. b.i.d. from 21 days, n=5
[5] = FIG. 4, MTX 1, 10 or 25 mg/kg weekly p.o. from 3 weeks of age, increasing amounts

| Compound | degree of arthritis (mean ankle thickness) (K/BxN mice; [3]) | onset of arthritis (K/BxN mice; [3]) | degree of arthritis (mean ankle thickness) (K/BxN mice; [4]) | onset of arthritis (K/BxN mice; [4]) | further results |
| --- | --- | --- | --- | --- | --- |
| Cn1cc(C[C@H](N)C(=O)O)c2ccccc21 (racemic) [1-MT, 1-methyl-tryptophan] |  |  |  |  | levels of serum anti-GPI Ig [1]: reduced levels of serum anti-GPI Ig; numbers of anti-GPI antibody secreting cells [2]: reduced numbers of anti-GPI antibody secreting cells |
| Cn1cc(C[C@@H](N)C(=O)O)c2ccccc21 [1-methyl-D-tryptophan] | greatly reduced the degree of arthritis | delayed the onset of arthritis | reduced the degree of arthritis | delayed the onset of arthritis | arthritis development (K/BxN mice; FIG. 3 legend, 400 mg/kg p.o. b.i.d. from 21 days): inhibits arthritis development |
| Cn1cc(CC(N)C(=O)O)c2ccccc21 [1-methyl-D/L-tryptophan] |  |  | reduced the degree of arthritis | delayed the onset of arthritis |  |
| Cn1cc(C[C@H](N)C(=O)O)c2ccccc21 [1-methyl-L-tryptophan] | greatly reduced the degree of arthritis | delayed the onset of arthritis |  |  |  |
| CN(Cc1cnc2nc(N)nc(N)c2n1)c1ccc(C(=O)N[C@@H](CCC(=O)O)C(=O)O)cc1 [MTX, methotrexate] |  |  |  |  | degree of arthritis (K/BxN mice; [5]): reduced the degree of arthritis; onset of arthritis (K/BxN mice; [5]): inhibited the onset of arthritis; arthritis development (K/BxN mice; FIG. 4 legend, MTX 1, 10 or 25 mg/kg weekly p.o. from 3 weeks of age): dose-dependent inhibition of arthritis development |
